According to patent US20150044201A1, “CYCLON EXPRESSION FOR THE IDENTIFICATION AND CONTROL OF CANCER CELLS” (UNIVERSITE JOSEPH FOURIER - GRENOBLE, priority 2012, published 2015):
“Also recorded” adds a separate entry of the source.

How the values were obtained:
Cyclon = conditions: K562 leukemic cells treated with Imatinib, public data GDS3043; cited from earlier work
Raji cells [1] = experiment: Xenotransplantation assay, Raji shCtrl / shCyclon tumours treated with Rituximab; type: in vivo, nude mice; conditions: subcutaneous, daily intraperitoneal 200 μg Rituximab
Protocol: 3·10^6 Raji cells were injected subcutaneously into the flank of 6 to 8 week-old nude mice as described. Four mice were injected, each of them with shCtrl and shCyclon Raji cells into the right and left flanks respectively. When tumours were palpable (˜[…]), mice were given daily intraperitoneal injections of 200 μg Rituximab. Tumour volume was measured every 2 days using the formula I^2×L×0.52 (n=4 for each group).

Raji cells [2] = experiment: Evaluation of Rituximab sensitivity, complement dependent cytotoxicity (CDC) assay; type: cell-based; conditions: sh Cyclon vs sh Ctrl cell lines (Raji, B593, SUDHL4); 1 h, 1 μg/ml Rituximab, 20% human serum
Protocol: (§1) Non-targeting or CYCLON targeting short hairpin (sh) RNA sequences were designed using the DSIR algorithm (http://biodev.cea.fr/DSIR/DSIR.html). Sequences, provided in Table 1, were cloned into the pLKO-1 lentiviral vector (Addgene) and packaged as described (Levy et al., 2010) or purchased from Santa Cruz. Cells were transduced with lentiviral particles at a MOI of 10. Stable cell lines were established under puromycin selection (1 μg/ml).
(§2) Cells were treated with 1 to 10 μg/ml Rituximab (Roche) or isotype control (Herceptin, Roche) for 24 h for direct apoptosis assays and for 1 h in presence of 20% human serum as a source of complement for CDC assays. Cell viability was evaluated by AnnexinV/IP (Beckman Coulter) or IP staining and flow cytometry analysis (LSIIR, BD). Specific cell death was calculated as (% of cell death with Rituximab−% cell death with Herceptin)/(1−% cell death with Herceptin), n=8 for each cell line.

Raji cells [3] = experiment: Evaluation of Rituximab sensitivity, direct apoptosis assay; type: cell-based; conditions: sh Cyclon vs sh Ctrl cell lines (Raji, B593, SUDHL4); 24 h, 10 μg/ml Rituximab
Protocol: as §1, §2

Compound: Cc1ccc(NC(=O)c2ccc(CN3CCN(C)CC3)cc2)cc1Nc1nccc(-c2cccnc2)n1 [Imatinib]
- Cyclon expression level (Cyclon): down-regulation of Cyclon; also recorded: reduce Cyclon expression levels

Compound: Rituximab
- tumour regression, day of treatment (Raji cells [1]; Cyclon-depleted tumours (Raji shCyclon)): ≤ 4 days
- tumour regression, day of treatment (Raji cells [1]; control tumours (Raji shCtrl)): 14 days
- sensitivity of cancer cells through complement dependent cytotoxicity (CDC specific cell death) (Raji cells [2]): increased sensitivity
- sensitivity of cancer cells through direct apoptosis (specific cell death) (Raji cells [3]): increased sensitivity
